Reference: ChEMBL document CHEMBL4673331 (J Med Chem, 2020)
Converted amounts (≈) assume the structure as drawn. The source made the active and inactive calls. The rule behind the calls is not given here.

Assays:
[1] = molecular target: Baculoviral IAP repeat-containing protein 3/Mucosa-associated lymphoid tissue lymphoma translocation protein 1 (Homo sapiens, UniProt Q13489+Q9UDY8); test: Allosteric inhibition of MALT1-cIAP2 (unknown origin) fusion protein expressed in HEK293 cells assessed as reduction in NF-KappaB activation by luciferase reporter gene assay; type: cell-based
[2] = Half-life in Balb/c mouse at 1 mg/kg, iv administered as cassette dosing; type: ADME, organism-based; details: in vivo
[3] = test system: OCI-Ly3; test: Antiproliferative activity against human OCI-LY3 cells assessed as assessed as reduction in colony formation incubated for 14 days by soft-agar assay; type: functional, cell-based; details: dose 19.5-10000 nM, time 14.0 day
[4] = test system: Mus musculus; test: Immunomodulatory activity in human TMD8 cells xenografted SCID mouse assessed as decrease in IL-10 production in tumor at 100 mg/kg, po; type: functional, organism-based
[5] = Volume of distribution at steady state in Balb/c mouse at 1 mg/kg, iv administered as cassette dosing; type: ADME, organism-based; details: in vivo, read-out: Vdss
[6] = molecular target: T1, Mucosa-associated lymphoid tissue lymphoma translocation protein 1 (Homo sapiens) (UniProt Q9UDY8); test: Allosteric inhibition of MALT1 protease activity in human OCI-LY3 cells assessed as accumulation of uncleaved substrate CYLD incubated for 24 hrs by Western blot analysis; type: cell-based; details: OCILY3, filed as negative allosteric modulator, dose 50-5000 nM
T1 sequence (whole entry): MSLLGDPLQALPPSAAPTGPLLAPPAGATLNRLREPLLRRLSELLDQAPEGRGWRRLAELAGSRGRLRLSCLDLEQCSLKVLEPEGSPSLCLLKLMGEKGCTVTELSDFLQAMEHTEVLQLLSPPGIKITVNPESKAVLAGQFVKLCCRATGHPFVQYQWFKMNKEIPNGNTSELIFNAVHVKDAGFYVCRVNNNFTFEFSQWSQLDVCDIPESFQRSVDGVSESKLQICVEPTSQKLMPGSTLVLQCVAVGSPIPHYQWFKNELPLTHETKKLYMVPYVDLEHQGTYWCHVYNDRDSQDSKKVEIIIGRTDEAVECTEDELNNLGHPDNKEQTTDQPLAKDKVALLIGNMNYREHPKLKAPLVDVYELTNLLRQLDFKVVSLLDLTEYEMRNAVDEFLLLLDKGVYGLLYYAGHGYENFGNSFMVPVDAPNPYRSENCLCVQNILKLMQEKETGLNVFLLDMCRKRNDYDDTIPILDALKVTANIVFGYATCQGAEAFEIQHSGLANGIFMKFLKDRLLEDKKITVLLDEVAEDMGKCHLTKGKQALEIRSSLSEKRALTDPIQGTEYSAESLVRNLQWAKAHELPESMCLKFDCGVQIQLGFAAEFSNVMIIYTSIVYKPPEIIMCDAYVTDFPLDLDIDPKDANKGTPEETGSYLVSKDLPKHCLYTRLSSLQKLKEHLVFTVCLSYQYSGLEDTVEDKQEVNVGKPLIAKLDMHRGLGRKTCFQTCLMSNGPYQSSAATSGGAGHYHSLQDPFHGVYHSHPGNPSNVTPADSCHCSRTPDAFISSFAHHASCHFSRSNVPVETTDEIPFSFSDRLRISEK

[7] = Volume of distribution at steady state in Sprague-Dawley rat at 1 mg/kg, iv administered as cassette dosing; type: ADME, organism-based; details: in vivo, read-out: Vdss
[8] = test system: TMD8; test: Antitumor activity against human TMD8 cells xenografted in SCID mouse assessed as tumor stasis at 100 mg/kg, po BID administered for 2 weeks; type: functional, organism-based
[9] = molecular target: T1, Mucosa-associated lymphoid tissue lymphoma translocation protein 1 (Homo sapiens); test: Allosteric inhibition of MALT1 protease activity in human OCI-LY3 cells assessed as accumulation of uncleaved substrate […] incubated for 24 hrs by Western blot analysis; type: cell-based; details: OCILY3, filed as negative allosteric modulator, dose 50-5000 nM
[10] = Drug concentration in Balb/c mouse blood at 10 mg/kg, po BID by LC-MS/MS analysis; type: ADME, organism-based; details: in vivo, read-out: Drug uptake
[11] = Solubility of the compound at pH 6.8; type: physicochemical; details: buffer
[12] = Permeability of compound by PAMPA assay; type: ADME
[13] = Dose normalized Cmax in Sprague-Dawley rat at 3 mg/kg, po administered as cassette dosing; type: ADME, organism-based; details: in vivo
[14] = Drug concentration in Balb/c mouse blood at 10 mg/kg, po BID administered at 12 hrs interval immunized post 1 hr first treatment measured after 12 hrs post second dose by LC-MS/MS analysis; type: ADME, organism-based; details: whole blood, read-out: Drug uptake
[15] = Thermodynamic solubility of the compound at pH 6.8; type: physicochemical; details: buffer, read-out: Therm_solubility
[16] = Toxicity in Balb/c mouse assessed as change in body weight at 10 to 100 mg/kg, po BID administered at 12 hrs interval immunized post 1 hr first treatment; type: organism-based; details: in vivo, dose 10-100 mg/kg
[17] = test system: Mus musculus; test: Immunomodulatory activity in human TMD8 cells xenografted SCID mouse assessed as increase in levels of uncleaved BCL10 in tumor at 100 mg/kg, po; type: functional, organism-based
[18] = molecular target: T2, Mucosa-associated lymphoid tissue lymphoma translocation protein 1 (Homo sapiens, UniProt Q9UDY8); test: Allosteric inhibition of MALT1 in human OCI-LY3 cells assessed as reduction in BCL10 cleavage measured after 24 hrs by ELISA; type: cell-based, OCILY3
T2 sequence (Q9UDY8 whole entry): T1 sequence (whole entry)

[19] = Clearance in Sprague-Dawley rat at 1 mg/kg, iv administered as cassette dosing; type: ADME, organism-based; details: in vivo
[20] = Drug concentration in Balb/c mouse blood at 100 mg/kg, po BID by LC-MS/MS analysis; type: ADME, organism-based; details: in vivo, read-out: Drug uptake
[21] = Apparent permeability across apical to basolateral side in human Caco-2 cells; type: ADME, cell-based
[22] = Inhibition of mixed lymphocyte reaction in rat PBMC cells assessed as reduction in [3H]-thymidine incorporation measured after 5 days in presence of Il-7 by microbeta counting method; type: cell-based

Baculoviral IAP repeat-containing protein 3/Mucosa-associated lymphoid tissue lymphoma translocation protein 1, sequence (Q13489 whole entry, one chain of several, the tested form may be a part): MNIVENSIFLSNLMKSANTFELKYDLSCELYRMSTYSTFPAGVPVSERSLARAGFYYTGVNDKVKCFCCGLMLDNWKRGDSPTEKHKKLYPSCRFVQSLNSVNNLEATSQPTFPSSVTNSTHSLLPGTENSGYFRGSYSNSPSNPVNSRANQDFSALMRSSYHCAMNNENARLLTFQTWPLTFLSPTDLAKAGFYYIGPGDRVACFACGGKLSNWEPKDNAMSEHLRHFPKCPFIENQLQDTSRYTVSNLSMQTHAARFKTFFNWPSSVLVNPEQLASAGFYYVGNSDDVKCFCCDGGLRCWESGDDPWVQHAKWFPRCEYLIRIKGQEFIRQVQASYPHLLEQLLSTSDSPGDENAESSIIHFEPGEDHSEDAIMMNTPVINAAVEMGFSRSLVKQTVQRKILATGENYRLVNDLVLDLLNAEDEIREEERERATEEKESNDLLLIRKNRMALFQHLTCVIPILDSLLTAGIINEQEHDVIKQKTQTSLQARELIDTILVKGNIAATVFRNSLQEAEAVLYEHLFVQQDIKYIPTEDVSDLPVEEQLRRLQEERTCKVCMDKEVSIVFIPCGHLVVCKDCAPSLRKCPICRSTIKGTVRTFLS

- IC50 [1]: 140 nM
- half-life [2]: 1.9 h
- Vd [5]: 1.5 L/kg
- inhibition [6]: Dose-dependent effect
- Vd [7]: 9.4 L/kg
- inhibition [9]: Dose-dependent effect
- concentration [10]: 2600 nM
- solubility [11]: 266 µM (≈ 125 µg/mL)
- log(permeability) [12]: -4.2
- Cmax/dose [13]: 46 nM
- concentration at 12 h [14]: 40 nM
- solubility thermodynamic [15]: 4 µg/mL (≈ 8.51 µM)
- IC50 [18]: 160 nM
- clearance [19]: 41 mL/min/kg
- concentration [20]: 23600 nM
- Papp A→B [21]: 1.47 ×10⁻⁶ cm/s
- IC50 [22]: 600 nM
SMILES: C[C@H]1COC[C@H](C)N1c1c(NC(=O)Nc2ccnc(C(F)(F)F)c2)cnc2cc(Cl)nn12
- Activity [3]: Dose-dependent effect
- Activity [4]: Active
- Activity [8]: Active
- Activity [16]: Non-Toxic
- Activity [17]: Active
